Measurements from publication PMC4398456, “Evidence for a Novel Mechanism of Antimicrobial Action of a Cyclic R-,W-Rich Hexapeptide” (PLoS ONE, 2015).
Converted amounts (≈) assume the structure as drawn. Non-standard residues stand in square brackets, D forms with d. Residues, ends and D or L forms follow the SMILES beside them. *: point of attachment. NBD = O=[N+]([O-])c1ccc(*)c2nonc12; Dap = NC[C@H](N)C(=O)O

What was measured:
B. subtilis DSM 347 = conditions: microdilution; reported before; cited from earlier work
E. coli DH5α = conditions: microdilution; reported before; cited from earlier work
B. subtilis L-170 = experiment: HPLC uptake study with o-nitroaniline modification; assay type: cell-based; conditions: 10^9 cells/ml DPBSG, 24 μM peptide, 30 min, 37°C; o-nitroaniline treatment; fluorescence HPLC; three independent experiments in triplicates
Text: (§1) As the cytoplasmic membrane of bacteria has been identified as the target of cWFW, cell wall-deficient L-form strains derived from E. coli (LWF+) and B. subtilis (L-170) were used to quantify peptide uptake into the cytoplasm. The approach, originally developed for the investigation of peptide uptake into eukaryotic cells, is based on chemical modification of the amino group of lysine side chains with o-nitroaniline and fluorescence-based HPLC detection of non-modified and modified sequences. Fluorescence labelling was necessary for quantification of cyclic hexapeptide uptake.
(§2) Cells were cultivated to an OD550 ± 0.8 in conical flasks as described above. After harvesting and centrifugation at 2000 × g (Sigma 3K12, Germany) for 12 min and removal of culture medium, cells were washed twice with DPBSG (DPBS containing 1g/l glucose). […] Protein content was determined with BCA Protein Assay Kit (Thermo Scientific, Germany) according to manufacturer’s instructions. […]
(§3) HPLC analysis was performed as described before using a Jasco LC-2000 Plus (U.S.) with a ProntoSil 300-5-C18-H column (250 × 4.6 mm, 5 μm) (Bischoff Chromatography, Germany) and a precolumn with PolyenCap A300, 10 μm. Peptide amounts were quantified via calibration curves for carboxyfluorescein (ex 445 nm, em 520 nm, gain 1000) and NBD fluorescence (ex 470 nm, em 520 nm, gain 1000), respectively.

E. coli L-WF+ = experiment: HPLC uptake study with o-nitroaniline modification; assay type: cell-based; conditions: 10^9 cells/ml DPBSG, 24 μM peptide, 30 min, 37°C; o-nitroaniline treatment; fluorescence HPLC; three independent experiments in triplicates
Text: as §1, §2, §3

B. subtilis = experiment: Peptide localisation by fluorescence microscopy (CLSM); assay type: cell-based; conditions: 12 μM peptide, 30 minutes, LB-agarose pad; at least three independent experiments
E. coli = experiment: as above; assay type: cell-based; conditions: 12 μM peptide, 30 minutes, LB-agarose pad; at least three independent experiments
Description: Cells from an overnight culture were diluted 1:100 in fresh medium and grown to mid-log phase. LB-agarose pads were prepared by adding 1.5% agarose to LB medium and heated until the agarose was completely dissolved. In the case of translocation experiments the solution was slightly cooled down before peptides were added at a final concentration of 12 μM. 100 μl LB-agarose was applied to a cover slip and stored at 8°C in the dark for ~30 minutes. The hardened LB-pad was placed on top of 10 μl of bacterial culture (OD600 0.4) and live cell imaging was performed for up to 100 minutes in a heat controlled chamber to avoid desiccation.
Specific staining of CL with NAO has been shown before and is neither influenced by fixation nor depolarisation of the membrane. The emission shift from green to red fluorescence (513 nm to 640 nm) was reported to be exclusive for binding to CL and is caused by narrow stacking of dye molecules. Images were captured using a Zeiss Axiovert M200 inverted fluorescence microscope and an LSM 510 ConfoCor2 (Germany) with plan-apochromat 63, 100×/1.4 objective, respectively, and processed with ImageJ.

SMILES | MIC B. subtilis DSM 347 (B. subtilis DSM 347) [µM] | MIC E. coli DH5α (E. coli DH5α) [µM] | fraction of unmodified peptide, inaccessible for chemical modification, of the total cell-bound peptides (B. subtilis L-170) [%] | fraction of unmodified peptide, inaccessible for chemical modification, of the total cell-bound peptides (E. coli L-WF+) | peptide localisation in live cells (B. subtilis) | peptide localisation in live cells (E. coli)
N=C(N)NCCC[C@@H]1NC(=O)[C@H](CCCCN)NC(=O)[C@H](Cc2c[nH]c3ccccc23)NC(=O)[C@H](CNc2ccc([N+](=O)[O-])c3nonc23)NC(=O)[C@H](Cc2c[nH]c3ccccc23)NC(=O)[C@H](CCCCN)NC1=O [cR2[NBD]] (cyclo(KRKW[Dap](NBD)W)) | 12 (≈ 12.4 µg/mL) | 50 (≈ 51.7 µg/mL) | ~30 | about 20% |  | 
N=C(N)NCCC[C@@H]1NC(=O)[C@H](CCCNC(=N)N)NC(=O)[C@H](Cc2c[nH]c3ccccc23)NC(=O)[C@H](CNc2ccc([N+](=O)[O-])c3nonc23)NC(=O)[C@H](Cc2c[nH]c3ccccc23)NC(=O)[C@H](CCCNC(=N)N)NC1=O [cW[NBD]W] (cyclo(RRRW[Dap](NBD)W)) | 25 (≈ 27.3 µg/mL) | 50 (≈ 54.5 µg/mL) |  |  | not detectable within the cytoplasm | not detectable within the cytoplasm
